Assay results: patent US8604217B2, “Compound, a process for its preparation, a pharmaceutical composition, use of a compound, a method for modulating or regulating serine/threonine kinases and a serine/threonine kinases modulating agent” (Selvita S.A., priority 2009, dated 2013)
Where two headings read alike, the source gives them in different places.

Columns and labels:
[1] = system: c-MYC; experiment: In vitro inhibition of protein phosphorylation, Western blot in MV4-11 cells; type: cell-based, human; settings: for IC50: Homo sapiens, MV4-11, MV411 cells, read-out: calculated cellular IC50 for biomarker inhibition, c-MYC
Method: (§1) The inventors have investigated the efficacy of PIM-1 kinase inhibition by compound 20 on MV4-11 cells 4 h and 24 h after the treatment. The efficacy of PIM-1 inhibition was evaluated basing on the changes in the expression and phosphorylation levels of its downstream target proteins, using Western blot (FIG. 1). Sunitinib was used as a positive control. After densitometric quantification of the obtained results, cellular IC50 was assessed (Table 6). […] PIM-1 and tubulin protein levels were assessed as controls.

[2] = system: p-4EBP1 (Ser65); experiment: as above; type: cell-based, human; settings: for IC50: Homo sapiens, MV4-11, MV411 cells, read-out: calculated cellular IC50 for biomarker inhibition, p-4EBP1 (Ser65)
Method: as §1

Brc1c(Br)c(Br)c2[nH]c(N3CCNCC3)nc2c1Br [Compound 20, 4,5,6,7-tetrabromo-2-(piperazin-1-yl)-1H-benzo[d]imidazole]
IC50 ([1]; 4 h treatment): 890 nM | IC50 ([1]; 24 h treatment): 2030 nM | inhibition of c-MYC (Western blot) ([1]; MV4-11 cells, after 4 h and 24 h): dose dependent inhibition | IC50 ([2]; 4 h treatment): 3130 nM | IC50 ([2]; 24 h treatment): 1120 nM | inhibition of p-4EBP1(Ser65) (Western blot) ([2]; MV4-11 cells, 4 h and 24 h): dose- and time-dependent inhibition
